# Measurements published in patent US11213517B2, “Pharmaceutical combination comprising a T-type calcium channel blocker” (IDORSIA PHARMACEUTICALS LTD, priority 2016, dated 2022).
# Several values for one entry are separate records, joined by “and”; a condition that tells them apart may be missing. Identical values can stand only once. Like-named read-outs stand apart in the source and are kept apart here.
# Experiments:
# [1] = tested on: audiogenic seizure-sensitive juvenile DBA/2J mice; experiment: Audiogenic seizure-sensitive juvenile DBA/2J mouse model of generalized tonic-clonic seizures; assay type: in vivo; set-up: key: 0 none, 1 wild running, 2 clonus, 3 hind-limb tonic extension; conditions: COMPOUND 1 10 mg/kg 3 h + vehicle 1 h before stimulus, oral gavage; mean ± SEM; 10 mg/kg
# Source text: Audiogenic Seizure-Sensitive Juvenile DBA/2J Mouse Model of Generalized Tonic-Clonic Seizures
# The inbred DBA/2J mouse strain carries an increased general susceptibility for acute generalized convulsive seizures induced by either pharmacological, electrical or, as juvenile, auditory stimuli. At the age of 17 to 28 days (juvenile), they show tonic-clonic convulsions when exposed to a loud tone.
# Male juvenile DBA/2J mice (22-24 days old, body weight between 6.6 and 14.5 grams) were used. Each mouse was placed individually in the exposure chamber, an hemispheric acrylic glass dome (diameter: 50 cm) within a sound-attenuated box. After 60 seconds of habituation, an auditory stimulus of mixed frequency tone (15-20 kHz at 110 dB) was played from a speaker placed on the top center of the dome.
# The sound-attenuated box was equipped with lights and a camera system in order to observe and record the behavioral seizure response classified as following: • stage 0, no response • stage 1, wild running • stage 2, clonus • stage 3, tonic extension of the hind limbs.
# (§1) Different combination efficacy experiments are performed. […] Each experiment consists of four treatment groups: • 1. Vehicle (10% Polyethylene glycol400 (PEG400)/90% methylcellulose (0.5% in water; MC0.5%)), 3 h before exposure to the auditory stimulus+vehicle, 1 h before exposure to the auditory stimulus; • 2. COMPOUND 1 (in 10% PEG400/90% MC0.5%), 3 h before exposure to the auditory stimulus+vehicle, 1 h before exposure to the auditory stimulus; • 3. Vehicle, 3 h before exposure to the auditory stimulus+AED (in 10% PEG400/90% MC0.5%), 1 h before exposure to the auditory stimulus; and • 4. COMPOUND 1 (in 10% PEG400/90% MC0.5%), 3 h before exposure to the auditory stimulus+AED (in 10% PEG400/90% MC0.5%), 1 h before exposure to the auditory stimulus.
# [2] = Plasma and brain concentrations of drugs at the end of the audiogenic seizure experiment (LC-MS); assay type: in vivo, mouse; conditions: for plasma and brain concentrations after administration of the compounds alone or in combination: juvenile DBA/2J mice; for concentration at 3 h: DBA/2J, mouse
# Method: Briefly, blood was sampled from the vena cava caudalis with a syringe pre-filled with EDTA (ethylenediamine tetraacetic acid) as anticoagulant and centrifuged to yield plasma (for 10 minutes, at 4° C. and 5000 rpm (rounds per minute)). Brain was sampled and homogenized into one volume of cold phosphate buffer (pH 7.4). Following extraction with methanol, concentrations of the compound in plasma and brain were determined using liquid chromatography coupled to mass spectrometry.
# as §1
# [3] = analyte COMPOUND 1, COMPOUND 1 10 mg/kg 3 h + vehicle 1 h before stimulus, oral gavage, mean ± SEM, 10 mg/kg
compound,measurement,setting,value
"N#Cc1ccc(Cn2ccc(NC(=O)Cc3ccc(C4(C(F)(F)F)CC4)cc3)n2)nc1 [COMPOUND 1, N-[1-(5-Cyano-pyridin-2-ylmethyl)-1H-pyrazol-3-yl]-2-[4-(1-trifluoromethyl-cyclopropyl)-phenyl]-acetamide]",Seizure stage (maximal seizure stage observed during exposure to auditory stimulus),[1],3 and 2.7 ± 0.3 and 3.0 ± 0.0 and 2.9 ± 0.1 and 2.7 ± 0.2 and 2.8 ± 0.2
same,plasma and brain concentrations after administration of the compounds alone or in combination,[2]; COMPOUND 1 and LEV,similar
same,plasma and brain concentrations after administration of the compounds alone or in combination,[2]; COMPOUND 1 and lamotrigine,similar
same,plasma and brain concentrations after administration of the compounds alone or in combination,[2]; COMPOUND 1 and valproic acid,similar
same,concentration at 3 h,"[2]; brain, oral, analyte COMPOUND 1, COMPOUND 1 10 mg/kg 3 h + LEV 1 mg/kg 1 h before stimulus, oral gavage, mean ± SEM, read-out: Brain concentration total",1930 ± 100 ng/g
same,concentration at 3 h,"[2]; brain, oral, analyte COMPOUND 1, COMPOUND 1 10 mg/kg 3 h + LEV 3 mg/kg 1 h before stimulus, oral gavage, mean ± SEM, read-out: Brain concentration total",2520 ± 190 ng/g
same,concentration at 3 h,"[2]; brain, oral, analyte COMPOUND 1, COMPOUND 1 10 mg/kg 3 h + LEV 10 mg/kg 1 h before stimulus, oral gavage, mean ± SEM, read-out: Brain concentration total",2030 ± 137 ng/g
same,concentration at 3 h,"[2]; brain, oral, analyte COMPOUND 1, COMPOUND 1 10 mg/kg 3 h + LEV 50 mg/kg 1 h before stimulus, oral gavage, mean ± SEM, read-out: Brain concentration total",1810 ± 93 ng/g
same,concentration at 3 h,"[2]; brain, oral, analyte COMPOUND 1, COMPOUND 1 10 mg/kg 3 h + LTG 10 mg/kg 1 h before stimulus, oral gavage, mean ± SEM, read-out: Brain concentration total",1420 ± 165 ng/g
same,concentration at 3 h,"[2]; brain, oral, analyte COMPOUND 1, COMPOUND 1 10 mg/kg 3 h + VPA 100 mg/kg 1 h before stimulus, oral gavage, mean ± SEM, read-out: Brain concentration total",2040 ± 178 ng/g
same,concentration at 3 h,"[2]; brain, oral, analyte COMPOUND 1, COMPOUND 1 10 mg/kg 3 h + VPA 200 mg/kg 1 h before stimulus, oral gavage, mean ± SEM, read-out: Brain concentration total",1640 ± 52 ng/g
same,concentration at 3 h,"[2]; brain, oral, analyte COMPOUND 1, COMPOUND 1 30 mg/kg 3 h + LEV 3 mg/kg 1 h before stimulus, oral gavage, mean ± SEM, read-out: Brain concentration total",5960 ± 330 ng/g
same,concentration at 3 h,"[2]; brain, oral, analyte COMPOUND 1, COMPOUND 1 30 mg/kg 3 h + LEV 10 mg/kg 1 h before stimulus, oral gavage, mean ± SEM, read-out: Brain concentration total",5470 ± 533 ng/g
same,concentration at 3 h,"[2]; brain, oral, analyte COMPOUND 1, COMPOUND 1 30 mg/kg 3 h + LEV 50 mg/kg 1 h before stimulus, oral gavage, mean ± SEM, read-out: Brain concentration total",4690 ± 399 ng/g
same,concentration at 3 h,"[2]; brain, oral, analyte COMPOUND 1, COMPOUND 1 30 mg/kg 3 h + LTG 3 mg/kg 1 h before stimulus, oral gavage, mean ± SEM, read-out: Brain concentration total",5030 ± 238 ng/g
same,concentration at 3 h,"[2]; brain, oral, analyte COMPOUND 1, COMPOUND 1 30 mg/kg 3 h + LTG 10 mg/kg 1 h before stimulus, oral gavage, mean ± SEM, read-out: Brain concentration total",4260 ± 350 ng/g
same,concentration at 3 h,"[2]; brain, oral, analyte COMPOUND 1, COMPOUND 1 30 mg/kg 3 h + LTG 30 mg/kg 1 h before stimulus, oral gavage, mean ± SEM, read-out: Brain concentration total",3290 ± 170 ng/g
same,concentration at 3 h,"[2]; brain, oral, analyte COMPOUND 1, COMPOUND 1 30 mg/kg 3 h + VPA 30 mg/kg 1 h before stimulus, oral gavage, mean ± SEM, read-out: Brain concentration total",5100 ± 375 ng/g
same,concentration at 3 h,"[2]; brain, oral, analyte COMPOUND 1, COMPOUND 1 30 mg/kg 3 h + VPA 100 mg/kg 1 h before stimulus, oral gavage, mean ± SEM, read-out: Brain concentration total",5980 ± 336 ng/g
same,concentration at 3 h,"[2]; brain, oral, analyte COMPOUND 1, COMPOUND 1 30 mg/kg 3 h + VPA 200 mg/kg 1 h before stimulus, oral gavage, mean ± SEM, read-out: Brain concentration total",4990 ± 245 ng/g
same,concentration at 3 h,"[2]; brain, po, 10 mg/kg, analyte COMPOUND 1, COMPOUND 1 10 mg/kg 3 h + vehicle 1 h before stimulus, oral gavage, mean ± SEM, read-out: Brain concentration total",1450 ± 104 ng/g
same,concentration at 3 h,"[2]; brain, po, 30 mg/kg, analyte COMPOUND 1, COMPOUND 1 30 mg/kg 3 h + vehicle 1 h before stimulus, oral gavage, mean ± SEM, read-out: Brain concentration total",5230 ± 487 ng/g
same,concentration at 3 h,"[2]; plasma, oral, analyte COMPOUND 1, COMPOUND 1 10 mg/kg 3 h + LEV 1 mg/kg 1 h before stimulus, oral gavage, mean ± SEM, read-out: Plasma concentration total",1500 ± 112 ng/mL
same,concentration at 3 h,"[2]; plasma, oral, analyte COMPOUND 1, COMPOUND 1 10 mg/kg 3 h + LEV 3 mg/kg 1 h before stimulus, oral gavage, mean ± SEM, read-out: Plasma concentration total",1600 ± 111 ng/mL
same,concentration at 3 h,"[2]; plasma, oral, analyte COMPOUND 1, COMPOUND 1 10 mg/kg 3 h + LEV 10 mg/kg 1 h before stimulus, oral gavage, mean ± SEM, read-out: Plasma concentration total",1590 ± 142 ng/mL
same,concentration at 3 h,"[2]; plasma, oral, analyte COMPOUND 1, COMPOUND 1 10 mg/kg 3 h + LEV 50 mg/kg 1 h before stimulus, oral gavage, mean ± SEM, read-out: Plasma concentration total",1720 ± 124 ng/mL
same,concentration at 3 h,"[2]; plasma, oral, analyte COMPOUND 1, COMPOUND 1 10 mg/kg 3 h + LTG 10 mg/kg 1 h before stimulus, oral gavage, mean ± SEM, read-out: Plasma concentration total",1290 ± 140 ng/mL
same,concentration at 3 h,"[2]; plasma, oral, analyte COMPOUND 1, COMPOUND 1 10 mg/kg 3 h + VPA 100 mg/kg 1 h before stimulus, oral gavage, mean ± SEM, read-out: Plasma concentration total",710 ± 80 ng/mL
same,concentration at 3 h,"[2]; plasma, oral, analyte COMPOUND 1, COMPOUND 1 10 mg/kg 3 h + VPA 200 mg/kg 1 h before stimulus, oral gavage, mean ± SEM, read-out: Plasma concentration total",1160 ± 73 ng/mL
same,concentration at 3 h,"[2]; plasma, oral, analyte COMPOUND 1, COMPOUND 1 30 mg/kg 3 h + LEV 3 mg/kg 1 h before stimulus, oral gavage, mean ± SEM, read-out: Plasma concentration total",4530 ± 224 ng/mL
same,concentration at 3 h,"[2]; plasma, oral, analyte COMPOUND 1, COMPOUND 1 30 mg/kg 3 h + LEV 10 mg/kg 1 h before stimulus, oral gavage, mean ± SEM, read-out: Plasma concentration total",4120 ± 315 ng/mL
same,concentration at 3 h,"[2]; plasma, oral, analyte COMPOUND 1, COMPOUND 1 30 mg/kg 3 h + LEV 50 mg/kg 1 h before stimulus, oral gavage, mean ± SEM, read-out: Plasma concentration total",3720 ± 351 ng/mL
same,concentration at 3 h,"[2]; plasma, oral, analyte COMPOUND 1, COMPOUND 1 30 mg/kg 3 h + LTG 3 mg/kg 1 h before stimulus, oral gavage, mean ± SEM, read-out: Plasma concentration total",4550 ± 293 ng/mL
same,concentration at 3 h,"[2]; plasma, oral, analyte COMPOUND 1, COMPOUND 1 30 mg/kg 3 h + LTG 10 mg/kg 1 h before stimulus, oral gavage, mean ± SEM, read-out: Plasma concentration total",3960 ± 372 ng/mL
same,concentration at 3 h,"[2]; plasma, oral, analyte COMPOUND 1, COMPOUND 1 30 mg/kg 3 h + LTG 30 mg/kg 1 h before stimulus, oral gavage, mean ± SEM, read-out: Plasma concentration total",2920 ± 150 ng/mL
same,concentration at 3 h,"[2]; plasma, oral, analyte COMPOUND 1, COMPOUND 1 30 mg/kg 3 h + VPA 30 mg/kg 1 h before stimulus, oral gavage, mean ± SEM, read-out: Plasma concentration total",3150 ± 296 ng/mL
same,concentration at 3 h,"[2]; plasma, oral, analyte COMPOUND 1, COMPOUND 1 30 mg/kg 3 h + VPA 100 mg/kg 1 h before stimulus, oral gavage, mean ± SEM, read-out: Plasma concentration total",2820 ± 256 ng/mL
same,concentration at 3 h,"[2]; plasma, oral, analyte COMPOUND 1, COMPOUND 1 30 mg/kg 3 h + VPA 200 mg/kg 1 h before stimulus, oral gavage, mean ± SEM, read-out: Plasma concentration total",2110 ± 118 ng/mL
same,concentration at 3 h,"[2]; plasma, po, 10 mg/kg, analyte COMPOUND 1, COMPOUND 1 10 mg/kg 3 h + vehicle 1 h before stimulus, oral gavage, mean ± SEM, read-out: Plasma concentration total",2120 ± 175 ng/mL
same,concentration at 3 h,"[2]; plasma, po, 30 mg/kg, analyte COMPOUND 1, COMPOUND 1 30 mg/kg 3 h + vehicle 1 h before stimulus, oral gavage, mean ± SEM, read-out: Plasma concentration total",3090 ± 297 ng/mL
same,Brain concentration total,[2]; [3],1895 ± 75 ng/g and 2379 ± 164 ng/g and 1965 ± 138 ng/g and 1743 ± 158 ng/g and 1435 ± 55 ng/g and 1197 ± 80 ng/g
same,Plasma concentration total,[2]; [3],1128 ± 98 ng/mL and 1858 ± 116 ng/mL and 1894 ± 113 ng/mL and 1785 ± 186 ng/mL and 1318 ± 77 ng/mL and 1522 ± 109 ng/mL
